Test results as given in PMC6150245 (Molecules : A Journal of Synthetic Chemistry and Natural …, 2017).
Converted amounts (≈) assume the structure as drawn. Bridge positions count the residues as written; N and C are the ends. Peptide text beside a SMILES is read from it. I, II: the chains in the order shown.

What was measured:
K. pneumoniae ATCC700603 = format: cell-based, Klebsiella pneumoniae
Method: (§1) After confirming antibacterial activity, the peptides were tested against gram-positive and gram-negative multidrug-resistant bacteria, including strains of clinical origin. The peptides, p-BthTX-I, des-Lys^12/(p-BthTX-I)2, and Lys^13-(p-BthTX-I)2 were serially diluted (512–1 μM) in cation-adjusted BBL MH II broth (CAMHB; Becton, Dickson and Co., Sparks, MD, USA) as described by CLSI. Bacteria at 5.0 × 10^5 CFU/mL were added to the media and incubated for 24 h at 37 °C. […] Assays were performed in duplicates, and sterile broth was used as the negative control. To determine the minimal bactericidal concentration (MBC), 100 µL from each well of the MIC assay plates that inhibited bacterial growth were sub-cultured onto MH agar (MHA) plates. […] If the ratio of MBC/MIC was >4, the activity of the peptide was considered bacteriostatic, as described previously.

human red blood cells = test: Hemolysis assay; format: cell-based; settings: 1% (v/v) human erythrocytes in Tris-saline pH 7.4, 1 h, 37 °C, absorbance 405 nm, triplicate
Method: Peptide hemolysis assays were performed as previously described by Castro et al.. Briefly, freshly prepared human red blood cells (RBCs) were washed three times with 0.01 M Tris-HCl (pH 7.4) containing 0.15 M NaCl (Tris-saline). A suspension of 1% (v/v) erythrocytes was made with packed RBCs resuspended in Tris-saline. Peptides were dissolved in Tris-saline at an initial concentration of […] and serially diluted in the same buffer to determine the concentration that triggered 50% hemolysis (HC50). As the positive control (100% lysis), 1% (v/v) Triton X-100 solution was used. After 1 h of incubation at 37 °C, the samples were centrifuged at 3000× g for 5 min. Then, 100 µL aliquots of the supernatant were transferred to 96-well microplates, and the absorbance was determined at 405 nm. The assay was performed in triplicates.

S. aureus SA90 = format: cell-based, Staphylococcus aureus
Method: as §1

Structure (SMILES)	MIC (K. pneumoniae ATCC700603; K. pneumoniae ATCC700603 (SHV-18), CAMHB, 24 h, 37 °C)	MBC (K. pneumoniae ATCC700603; K. pneumoniae ATCC700603, sub-culture on MH agar, 99.9% death)	HC50 (peptide concentration that produced 50% hemolysis) (human red blood cells)	MIC (S. aureus SA90; S. aureus SA90 (MRSA), CAMHB, 24 h, 37 °C)	MBC (S. aureus SA90; S. aureus SA90, sub-culture on MH agar, 99.9% death)
CC(C)C[C@H](NC(=O)[C@H](Cc1c[nH]cn1)NC(=O)[C@H](Cc1ccc(O)cc1)NC(=O)[C@H](CCCNC(=N)N)NC(=O)[C@H](Cc1ccc(O)cc1)NC(=O)[C@H](CCCCN)NC(=O)[C@@H](N)CCCCN)C(=O)N[C@@H](CCCCN)C(=O)N1CCC[C@H]1C(=O)N[C@@H](Cc1ccccc1)C(=O)N[C@@H](CSSC[C@H](NC(=O)[C@H](Cc1ccccc1)NC(=O)[C@@H]1CCCN1C(=O)[C@H](CCCCN)NC(=O)[C@H](CC(C)C)NC(=O)[C@H](Cc1c[nH]cn1)NC(=O)[C@H](Cc1ccc(O)cc1)NC(=O)[C@H](CCCNC(=N)N)NC(=O)[C@H](Cc1ccc(O)cc1)NC(=O)[C@H](CCCCN)NC(=O)[C@@H](N)CCCCN)C(=O)N[C@@H](CCCCN)C(=O)N[C@@H](CCCCN)C(=O)O)C(=O)N[C@@H](CCCCN)C(=O)N[C@@H](CCCCN)C(=O)O [(p-BthTX-I)2]	64 µM (≈ 222 µg/mL)	64 µM (≈ 222 µg/mL)	>128 µM	128 µM (≈ 445 µg/mL)	256 µM (≈ 890 µg/mL)
CC(C)C[C@H](NC(=O)[C@H](Cc1c[nH]cn1)NC(=O)[C@H](Cc1ccc(O)cc1)NC(=O)[C@H](CCCNC(=N)N)NC(=O)[C@H](Cc1ccc(O)cc1)NC(=O)[C@H](CCCCN)NC(=O)[C@@H](N)CCCCN)C(=O)N[C@@H](CCCCN)C(=O)N1CCC[C@H]1C(=O)N[C@@H](Cc1ccccc1)C(=O)N[C@@H](CSSC[C@H](NC(=O)[C@H](Cc1ccccc1)NC(=O)[C@@H]1CCCN1C(=O)[C@H](CCCCN)NC(=O)[C@H](CC(C)C)NC(=O)[C@H](Cc1c[nH]cn1)NC(=O)[C@H](Cc1ccc(O)cc1)NC(=O)[C@H](CCCNC(=N)N)NC(=O)[C@H](Cc1ccc(O)cc1)NC(=O)[C@H](CCCCN)NC(=O)[C@@H](N)CCCCN)C(=O)O)C(=O)O [des-Lys^12/Lys^13-(p-BthTX-I)2] (I: H-KKYRYHLKPFC-OH / II: H-KKYRYHLKPFC-OH; disulfide I:11-II:11)			>128 µM		
